PubChem BioAssay (NCI)
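Each compound was tested at five concentrations against cells in 96-well plates for 48 hours. Abbreviation: GI50, concentration required for 50% inhibition of growth. TGI marks complete inhibition of growth.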

Key:
Assay in all cases: NCI anticancer screen, dose series, 48 h
ACHN renal = system: ACHN renal
EKVX NSCLC = system: EKVX NSCLC
HCC-2998 colon = system: HCC-2998 colon
HCT-15 colon = system: HCT-15 colon
LOX IMVI melanoma = system: LOX IMVI melanoma
MDA-MB-435 = system: MDA-MB-435
OVCAR-8 ovarian = system: OVCAR-8 ovarian
SF-539 CNS = system: SF-539 CNS
SW-620 colon = system: SW-620 colon
UO-31 renal = system: UO-31 renal

Row | SMILES | GI50 (ACHN renal) | TGI (ACHN renal) | GI50 (EKVX NSCLC) | TGI (EKVX NSCLC) | GI50 (HCC-2998 colon) | TGI (HCC-2998 colon) | GI50 (HCT-15 colon) | TGI (HCT-15 colon) | GI50 (LOX IMVI melanoma) | TGI (LOX IMVI melanoma) | GI50 (MDA-MB-435) | TGI (MDA-MB-435) | GI50 (OVCAR-8 ovarian) | TGI (OVCAR-8 ovarian) | GI50 (SF-539 CNS) | TGI (SF-539 CNS) | GI50 (SW-620 colon) | TGI (SW-620 colon) | GI50 (UO-31 renal) | TGI (UO-31 renal)
1 | Cc1cc(N2CCC(N3CCCC3)CC2)nc(/N=C(\N)Nc2ccc(Cl)c(Cl)c2)n1 | 1.71 µM | 3.22 µM | 1.71 µM | 4.4 µM | 1.54 µM | 3.17 µM | 1.64 µM | 3.64 µM | 1.61 µM | 3.35 µM | 1.74 µM | 3.3 µM | 1.91 µM | 3.77 µM | 1.72 µM | 3.54 µM | 1.57 µM | 3.24 µM | 1.44 µM | 2.85 µM
2 | CCn1c(-c2nonc2N)nc2ccccc21 | > 25 µM | > 25 µM | 20.9 µM | > 25 µM | > 25 µM | > 25 µM | > 25 µM | > 25 µM | > 25 µM | > 25 µM | > 25 µM | > 25 µM | > 25 µM | > 25 µM | > 25 µM | > 25 µM | > 25 µM | > 25 µM | > 25 µM | > 25 µM
3 | O=[N+]([O-])c1ccccc1N=Nc1c(O)[nH]c2c(Cl)cccc12 | – | > 45.8 µM | – | > 61.5 µM | – | > 100 µM | – | > 100 µM | – | 44.1 µM | – | > 100 µM | – | 37.4 µM | – | > 100 µM | – | > 79 µM | – | > 67.2 µM
4 | O=C1/C(=C/c2ccc(Cl)cc2)CCC1CNc1ccc(Cl)cc1 (stereo not drawn) | – | 26.9 µM | – | 38.4 µM | – | 21.6 µM | – | 15.3 µM | – | 15.1 µM | – | 37.6 µM | – | 19.2 µM | – | 23.3 µM | – | 11.4 µM | – | 30.1 µM
5 | CCN(CC)c1ccc(/C=N/NC(=O)Cc2ccc(Nc3ccnc(C(F)(F)F)c3)cc2)c(O)c1 | 0.399 µM | > 26.9 µM | 0.98 µM | > 77 µM | 1.17 µM | > 100 µM | 0.373 µM | > 100 µM | 0.413 µM | 3.8 µM | 1.29 µM | > 100 µM | 0.757 µM | > 100 µM | 0.652 µM | 7.02 µM | 0.729 µM | > 100 µM | 0.482 µM | > 100 µM
6 | CC(=O)c1cc2c(N)c(C(=O)Nc3cccc4ccccc34)sc2nc1C | 3.61 µM | > 50 µM | 2.9 µM | > 50 µM | 2.29 µM | > 50 µM | 1.71 µM | > 50 µM | 2.58 µM | > 50 µM | 0.178 µM | 1.08 µM | 2.14 µM | > 50 µM | 1.16 µM | 3.99 µM | 1.55 µM | > 50 µM | 4.27 µM | > 50 µM
7 | CC(C)(Oc1ccc(-c2cccc3ccccc23)cc1)C(=O)O | – | > 100 µM | – | > 100 µM | – | > 100 µM | – | > 100 µM | – | – | – | > 100 µM | – | > 100 µM | – | > 100 µM | – | > 100 µM | – | > 100 µM
8 | COC1C(OC(=O)c2ccc(C)[nH]2)C(O)C(Oc2ccc3c(O)c(NC(=O)c4ccc(O)c(CC=C(C)C)c4)c(=O)oc3c2Cl)OC1(C)C (stereo not drawn) | – | 77.5 µM | – | 61.9 µM | – | 33.2 µM | – | 38.1 µM | – | 38.4 µM | – | > 100 µM | – | 52 µM | – | 38.1 µM | – | 38 µM | – | –
